Reference: publication PMC7661967, “Magnetic Resonance Molecular Imaging of Extradomain B Fibronectin Improves Imaging of Pancreatic Cancer Tumor Xenografts” (Frontiers in Oncology, 2020)
Entries after “also recorded” stand apart in the source; their conditions may differ. No end group written: not given here.

Key:
[1] = Spleen CNR in contrast-enhanced MRI; type: in vivo, nu/nu mice; conditions: BxPC3-GFP-Luc intrapancreatic model (n = 3), p > 0.05
Experimental: Flank tumor-bearing mice were anesthetized and a tail vein catheter inserted. MR image acquisition was performed on a 7T Biospin (Bruker, Billerica, MA) preclinical small animal scanner with a volume radiofrequency coil. Axial images were obtained using a multi-spin multi-echo (MSME) MRI sequence (500 ms TR, 8.1 ms TE, 90° FA, 4.50 cm × 4.50 cm FOV, 1.50 mm slice thickness, 16 slices, 2 averages, 200 × 200 matrix, 0.0225 × 0.0225 cm/pixel resolution). Contrast agents were injected at a dose of 0.1 mmol/kg (100 μL) via the tail vein catheter, followed by a saline flush. Images of the tumors were acquired before contrast and at various time points after contrast administration. Gd(HP-DO3A) was used as a control.
Mice bearing intrapancreatic tumors were anesthetized and a tail vein catheter was inserted. Image acquisition was performed on a MR Solutions 3T MRS 3000 scanner with a mouse radiofrequency coil. […]
Image files were exported and analyzed in Horus software. […] The contrast-to-noise ratio of the tumor (CNR) was calculated using the following equation, where σnoise is the standard deviation of intensities from an ROI drawn outside of the mouse body: […]

[2] = test system: PANC-1-GFP-Luc intrapancreatic tumor xenografts; assay: MRMI of PANC-1-GFP-Luc intrapancreatic tumor xenografts (3T); type: in vivo, human cells in female nu/nu mice
Experimental: For flank xenograft models, 4 × 10^6 Capan-1 cells suspended in 100 μL of a 6 mg/mL Matrigel (Corning, Corning, NY) solution was injected subcutaneously into the flank of 8-week-old female nu/nu mice. The tumor bearing mice were imaged after tumor volumes exceeded 300 mm^3. For orthotopic intrapancreatic models, the pancreas of 4-week-old female nu/nu mice were surgically exposed via a ~10 mm incision in the left ventral abdomen and the application of gentle pressure to express the spleen and associated pancreatic tissue. 1 × 10^6 BxPC3-GFP-Luc or PANC-1-GFP-Luc cells suspended in 100 μL of a Matrigel solution (6 mg/mL) was injected into the pancreatic tissue using an insulin syringe with a 31G needle. Any leakage of cell suspension was lavaged with DPBS twice to prevent intraabdominal seeding PaCa cells. The peritoneal fascia was closed with absorbable stitches, and the dermis closed with stainless steel wound clips. Prior to imaging, growth of tumor was verified by bioluminescence imaging with intraperitoneal injection of d-luciferin on IVIS Spectrum system (Perkin Elmer, Waltham, MA).
Mice bearing intrapancreatic tumors were anesthetized and a tail vein catheter was inserted. Image acquisition was performed on a MR Solutions 3T MRS 3000 scanner with a mouse radiofrequency coil. Axial images were obtained using a Fast Spin Echo (FSE) MRI sequence (305 ms TR, 11 ms TE, 90° FA, 4 cm × 4 cm FOV, 1 mm slice thickness, 10 slices, echo train length = 4, echo spacing = 11 ms, 4 averages, 256 × 256 matrix, 0.0156 × […] cm/pixel resolution) with respiratory gating. Images were acquired before contrast and at different time points after contrast injection at a dose of 0.1 mmol/kg (100 μL). For competitive binding experiments, a 5:1 molar ratio of free ZD2 peptide to MT218 was injected in mice bearing intrapancreatic BxPC3 tumor xenografts (n = 3) at a dose of 0.1 mmol MT218/kg (100 μL). Images obtained on the MR Solutions 3T scanner were normalized using the Surscalereader.exe (MR Solutions, Guildford, UK) program supplied.
Image files were exported and analyzed in Horus software. ROIs were drawn in the tumor, liver, kidney, and muscle. Muscle ROIs were taken from the muscle, with other structures (liver, kidney, tumor) identified after comparison with published images and comparison with anatomical landmarks or bioluminescent imaging. Pancreatic lesions were localized using the liver, kidney, and spleen as anatomical landmarks. […] Size of ROIs drawn for image analysis are summarized in Supplementary Table 1. The contrast-to-noise ratio of the tumor (CNR) was calculated using the following equation, where σnoise is the standard deviation of intensities from an ROI drawn outside of the mouse body:
CNR=Mean IntensityTumor-Mean IntensityMuscle/σnoise.
Image subtraction was performed on images adjusted to the same window and level in FIJI open-source software.
Image contrast was reported as fold enhancement of contrast to noise ratio of post-contrast images over pre-contrast images using Fold Enhancement = CNRpost/CNRpre. Statistical analysis of CNR was performed in Minitab Express (Minitab Inc., State College, PA). One-way ANOVA with Fisher Individual Tests for Differences of Means post-hoc testing was performed to determine statistical significance between >2 means (p < 0.05). Student's T test was used to determine statistical significance between 2 means (p < 0.05).

[3] = cited from earlier work
Excerpt: (§1) ZD2 targeted MRI contrast agents have been developed and tested for MRMI of EDB-FN in aggressive breast cancer and prostate cancer models ([15], [16], [20]). The targeted contrast agent ZD2-N3-Gd(HP-DO3A) (MT218) was developed by conjugating ZD2 peptide to a clinical macrocyclic contrast agent Gd(HP-DO3A) ([16], [20]). […] The ...

[4] = test system: aggressive breast and prostate cancers; conditions: cited from earlier work
Excerpt: as §1

EDB fragment of FN = target: T1, EDB fragment of FN (Homo sapiens, UniProt P02751); assay: Microscale thermophoresis binding affinity; conditions: MST
T1 construct: The EDB fragment of FN was expressed in E. coli; made in house; host or cells: E. coli
Experimental: The binding affinity of MT218 was determined with microscale thermophoresis (MST) using a Nanotemper Monolith NT.115 instrument (NanoTemper Technologies, Munich, Germany). The EDB fragment of FN was expressed in E. coli, purified, and labeled with amine-reactive dye NT-647. MT218 was dissolved into assay buffer (50 mM PBS w/0.05% Tween-20). This solution was further diluted using assay buffer to give a series of MT218 working solutions. Each MT218 working solution was then mixed with a fixed concentration of fluorescently labeled EDB fragment. The mixtures of MT218 and EDB were then loaded into standard capillaries, and MST measurements were performed at 25°C using 20–80% light-emitting diode power and 40% infrared-laser power at varying concentrations of MT218.

[5] = 0.1 mmol/kg, 10 min post-injection, n = 6

T1 sequence (P02751 1271-1359 limits assumed): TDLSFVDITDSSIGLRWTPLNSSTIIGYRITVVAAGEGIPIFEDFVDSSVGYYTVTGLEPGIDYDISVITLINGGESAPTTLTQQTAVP

ZD2-N3-Gd(HP-DO3A) (TVRTSAD; also: conjugated via N3 to Gd(HP-DO3A) contrast agent, end not given here) [MT218, small molecular conjugate of ZD2 peptide to a macrocyclic clinical MRI contrast agent Gd(HP-DO3A)]
spleen CNR, MT218 vs Gd(HP-DO3A) [1]: No significant (n.s, p>0.05) difference in spleen CNR | intratumoral CNR increase (post/pre) [2, 5]: approximately 3.9 fold | tumor contrast enhancement [2, 5]: substantial contrast enhancement | tumor signal enhancement, subtraction images [2, 5]: substantial signal enhancement | MT218 CNR as percent of Gd(HP-DO3A) control ([2]; PANC-1-GFP-Luc intrapancreatic, control Gd(HP-DO3A), p < 0.05): 164% | CNR relative to clinical agent ([2]; PANC-1-GFP-Luc intrapancreatic, vs Gd(HP-DO3A), p < 0.05): 1.6 times | T1 relaxivity compared with Gd(HP-DO3A), in words [3]: higher T1 relaxivity than Gd(HP-DO3A) | contrast enhancement [4]: superior contrast enhancement | binding affinity (in words) (EDB fragment of FN; MT218 to EDB-FN): micromolar affinity; also recorded: moderate binding affinity | Kd (EDB fragment of FN; NT-647-labeled EDB fragment, 50 mM PBS w/0.05% Tween-20, 25°C): 3.2 ± 0.2 µM
